Source: patent US6706663B2, “Herbicidal 3-heterocyclic substituted benzisothiazole and benzisoxazole compounds” (Wyeth, priority 2000, dated 2004)

Columns and labels:
ZEAMX (Corn, Field) [1] = assay: Preemergence herbicidal evaluation; assay type: in vivo, Zea mays, L.; conditions: preemergence, rated 4-5 weeks after treatment
[2] = system: GLXMAW (Soybean, Williams); assay: Postemergence herbicidal evaluation; assay type: in vivo, Glycine max, (L.) Merr. cv Williams; conditions: postemergence
In short: (§1)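 Seedlings grown about two weeks in flats, sprayed, then kept under standard greenhouse care. Rated visually 4–5 weeks after treatment on a 0–9 scale (stand, vigour, malformation, size, chlorosis, overall appearance) relative to untreated control; repeat tests averaged.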

[3] = system: AMBEL (Ambrosia artemisifolia); assay: Preemergence herbicidal evaluation; assay type: in vivo, L.; conditions: preemergence, rated 4-5 weeks after treatment
In short: (§2)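 Scores (0–9) reflect visual comparison with control plants for stand, vigor, malformation, size and chlorosis. Seeds in potting soil received a post-planting spray of compound in aqueous acetone and grew in a greenhouse until assessment 4–5 weeks later.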

[4] = system: ABUTH (Abutilon theophrasti); assay: Postemergence herbicidal evaluation; assay type: in vivo, Medic.; conditions: postemergence
In short: as §1

ZEAMX (Corn, Field) [5] = assay: Postemergence herbicidal evaluation; assay type: in vivo, Zea mays, L.; conditions: postemergence
In short: as §1

[6] = system: MOOVA (Monochoria vaginalis); assay: Flooded paddy, preemergence weed control; assay type: in vivo, Presl.; conditions: rated 3-4 weeks after treatment, 0-9 rating scale
In short: (§3)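 Visual 0-9 rating versus control, scoring stand, vigor, malformation, size, chlorosis and overall appearance. Silt loam soil, propagules in top 0.5 cm; flood depth 1.5–3 cm held for the whole test; greenhouse.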

[7] = system: ECHORC (Echinochloa oryzoides); assay: Flooded paddy, preemergence weed control; assay type: in vivo, Echinochloa oryzoides (Ard.) Fritsch.; conditions: rated 3-4 weeks after treatment, 0-9 rating scale
In short: as §3

[8] = system: CHEAL (Chenopodium album); assay: Postemergence herbicidal evaluation; assay type: in vivo, L.; conditions: postemergence
In short: as §1

[9] = system: AMBEL (Ambrosia artemisifolia); assay: Postemergence herbicidal evaluation; assay type: in vivo, L.; conditions: postemergence
In short: as §1

[10] = system: CASOB (Cassia obtusifolia); assay: Postemergence herbicidal evaluation; assay type: in vivo, L.; conditions: postemergence
In short: as §1

GALAP (Galium aparine) [11] = assay: Preemergence herbicidal evaluation; assay type: in vivo; conditions: preemergence, rated 4-5 weeks after treatment
In short: as §2

[12] = system: SAGPY (Sagittaria pygmaea); assay: Flooded paddy, preemergence weed control; assay type: in vivo, L.; conditions: rated 3-4 weeks after treatment, 0-9 rating scale
In short: as §3

[13] = system: ABUTH (Abutilon theophrasti); assay: Preemergence herbicidal evaluation; assay type: in vivo, Medic.; conditions: preemergence, rated 4-5 weeks after treatment
[14] = system: ECHCG (Echinochloa crus-galli); assay: Preemergence herbicidal evaluation; assay type: in vivo, (L.) Beau; conditions: preemergence, rated 4-5 weeks after treatment
In short: as §2

[15] = system: ECHCG (Echinochloa crus-galli); assay: Postemergence herbicidal evaluation; assay type: in vivo, (L.) Beau; conditions: postemergence
In short: as §1

GLXMA (Soybean) = assay: Preemergence herbicidal evaluation; assay type: in vivo, Glycine max, (L.) Merr.; conditions: preemergence, rated 4-5 weeks after treatment
ORYSAT (Rice, Tebonnet) [16] = assay: Flooded paddy, post-transplant rice tolerance; assay type: in vivo, Oryza sativa, (L.) Tebonnet; conditions: flooded paddy, post-transplant rice, rated 3-4 weeks after treatment, 0-9 rating scale
In short: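 Two ten-day-old seedlings were transplanted into silt loam, flooded and held at 1.5 to 3 cm water above the soil before herbicide treatment. Pots stayed in the greenhouse at that water level. Injury was scored visually on a 0-9 scale versus untreated control.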

[17] = system: IPOHE (Ipomoea hederacea); assay: Preemergence herbicidal evaluation; assay type: in vivo, (L.) Jacq.; conditions: preemergence, rated 4-5 weeks after treatment
[18] = system: TRZAWR (Wheat, Winter, cv Riband); assay: Postemergence herbicidal evaluation; assay type: in vivo, Triticum aestivum; conditions: postemergence
In short: as §1

GALAP (Galium aparine) [19] = assay: Postemergence herbicidal evaluation; assay type: in vivo; conditions: postemergence
In short: as §1

[20] = system: IPOHE (Ipomoea hederacea); assay: Postemergence herbicidal evaluation; assay type: in vivo, (L.) Jacq.; conditions: postemergence
In short: as §1

CYPIR (Cyperus iria) = assay: Flooded paddy, preemergence weed control; assay type: in vivo; conditions: rated 3-4 weeks after treatment, 0-9 rating scale
In short: as §3

ORYSAT (Rice, Tebonnet) [21] = assay: Postemergence herbicidal evaluation; assay type: in vivo, Oryza sativa, (L.) Tebonnet; conditions: postemergence
In short: as §1

Q: `Cn1c(C(F)(F)F)cc(=O)n(-c2ccc3snc(-c4nc5ccccc5[nH]c4=O)c3c2)c1=O` [Compound 90, 3-[3-(3,4-dihydro-3-oxo-2-quinoxalinyl)-1,2-benzisothiazol-5-yl]-1-methyl-6-(trifluoromethyl)uracil] was tested. Which “Preemergence herbicidal rating ZEAMX” value (ZEAMX (Corn, Field) [1]; rate 0.0620 kg/ha) did it give?
A: 0.0

Q: What about the “Preemergence herbicidal rating ZEAMX” value (ZEAMX (Corn, Field) [1]; rate 0.1250 kg/ha) of the same compound?
A: 0.0

Q: And the “Preemergence herbicidal rating ZEAMX” value (ZEAMX (Corn, Field) [1]; rate 0.2500 kg/ha)?
A: 0.0

Q: And the GLXMAW herbicidal rating ([2]; rate 0.0320 kg/ha)?
A: 6.0

Q: What about the GLXMAW herbicidal rating ([2]; rate 0.0620 kg/ha) of the same compound?
A: 6.3

Q: And the GLXMAW herbicidal rating ([2]; rate 0.1250 kg/ha)?
A: 6.5

Q: What about the “Preemergence herbicidal rating AMBEL” value ([3]; rate 0.0620 kg/ha) of the same compound?
A: 0.0

Q: What about the “Preemergence herbicidal rating AMBEL” value ([3]; rate 0.1250 kg/ha) of the same compound?
A: 1.5

Q: What about the “Preemergence herbicidal rating AMBEL” value ([3]; rate 0.2500 kg/ha) of the same compound?
A: 3.5

Q: And the ABUTH herbicidal rating ([4]; rate 0.0320 kg/ha)?
A: 7.5

Q: And the ABUTH herbicidal rating ([4]; rate 0.0620 kg/ha)?
A: 7.5

Q: What about the ABUTH herbicidal rating ([4]; rate 0.1250 kg/ha) of the same compound?
A: 9.0

Q: What about the ZEAMX herbicidal rating (ZEAMX (Corn, Field) [5]; rate 0.0320 kg/ha) of the same compound?
A: 3.3

Q: What about the ZEAMX herbicidal rating (ZEAMX (Corn, Field) [5]; rate 0.0620 kg/ha) of the same compound?
A: 3.3

Q: What about the ZEAMX herbicidal rating (ZEAMX (Corn, Field) [5]; rate 0.1250 kg/ha) of the same compound?
A: 2.5

Q: What about the MOOVA herbicidal rating ([6]; rate 0.0320 kg/ha) of the same compound?
A: 0.0

Q: What about the MOOVA herbicidal rating ([6]; rate 0.1250 kg/ha) of the same compound?
A: 0.0

Q: And the ECHORC herbicidal rating ([7]; rate 0.0320 kg/ha)?
A: 0.0

Q: What about the ECHORC herbicidal rating ([7]; rate 0.1250 kg/ha) of the same compound?
A: 0.0

Q: What about the CHEAL herbicidal rating ([8]; rate 0.0320 kg/ha) of the same compound?
A: 9.0

Q: What about the CHEAL herbicidal rating ([8]; rate 0.0620 kg/ha) of the same compound?
A: 9.0

Q: And the CHEAL herbicidal rating ([8]; rate 0.1250 kg/ha)?
A: 9.0

Q: What about the AMBEL herbicidal rating ([9]; rate 0.0320 kg/ha) of the same compound?
A: 6.5

Q: What about the AMBEL herbicidal rating ([9]; rate 0.0620 kg/ha) of the same compound?
A: 6.5

Q: And the AMBEL herbicidal rating ([9]; rate 0.1250 kg/ha)?
A: 9.0

Q: What about the CASOB herbicidal rating ([10]; rate 0.0320 kg/ha) of the same compound?
A: 5.0

Q: What about the CASOB herbicidal rating ([10]; rate 0.0620 kg/ha) of the same compound?
A: 5.0

Q: What about the CASOB herbicidal rating ([10]; rate 0.1250 kg/ha) of the same compound?
A: 5.0

Q: What about the “Preemergence herbicidal rating GALAP” value (GALAP (Galium aparine) [11]; rate 0.0620 kg/ha) of the same compound?
A: 0.0

Q: What about the “Preemergence herbicidal rating GALAP” value (GALAP (Galium aparine) [11]; rate 0.1250 kg/ha) of the same compound?
A: 0.0

Q: What about the “Preemergence herbicidal rating GALAP” value (GALAP (Galium aparine) [11]; rate 0.2500 kg/ha) of the same compound?
A: 3.0

Q: What about the SAGPY herbicidal rating ([12]; rate 0.0320 kg/ha) of the same compound?
A: 0.0

Q: And the SAGPY herbicidal rating ([12]; rate 0.1250 kg/ha)?
A: 0.0

Q: And the “Preemergence herbicidal rating ABUTH” value ([13]; rate 0.0620 kg/ha)?
A: 0.0

Q: What about the “Preemergence herbicidal rating ABUTH” value ([13]; rate 0.1250 kg/ha) of the same compound?
A: 3.5

Q: And the “Preemergence herbicidal rating ABUTH” value ([13]; rate 0.2500 kg/ha)?
A: 9.0

Q: And the “Preemergence herbicidal rating ECHCG” value ([14]; rate 0.0620 kg/ha)?
A: 0.0

Q: What about the “Preemergence herbicidal rating ECHCG” value ([14]; rate 0.1250 kg/ha) of the same compound?
A: 0.0

Q: What about the “Preemergence herbicidal rating ECHCG” value ([14]; rate 0.2500 kg/ha) of the same compound?
A: 1.0

Q: And the ECHCG herbicidal rating ([15]; rate 0.0320 kg/ha)?
A: 2.0

Q: And the ECHCG herbicidal rating ([15]; rate 0.0620 kg/ha)?
A: 3.0

Q: What about the ECHCG herbicidal rating ([15]; rate 0.1250 kg/ha) of the same compound?
A: 4.0

Q: And the “Preemergence herbicidal rating GLXMA” value (GLXMA (Soybean); rate 0.0620 kg/ha)?
A: 0.0

Q: And the “Preemergence herbicidal rating GLXMA” value (GLXMA (Soybean); rate 0.1250 kg/ha)?
A: 0.0

Q: And the “Preemergence herbicidal rating GLXMA” value (GLXMA (Soybean); rate 0.2500 kg/ha)?
A: 0.0

Q: What about the “ORYSAT herbicidal rating (transplanted rice tolerance)” value (ORYSAT (Rice, Tebonnet) [16]; rate 0.0320 kg/ha) of the same compound?
A: 0.0

Q: And the “ORYSAT herbicidal rating (transplanted rice tolerance)” value (ORYSAT (Rice, Tebonnet) [16]; rate 0.1250 kg/ha)?
A: 0.0

Q: And the “Preemergence herbicidal rating IPOHE” value ([17]; rate 0.0620 kg/ha)?
A: 0.0

Q: What about the “Preemergence herbicidal rating IPOHE” value ([17]; rate 0.1250 kg/ha) of the same compound?
A: 0.0

Q: What about the “Preemergence herbicidal rating IPOHE” value ([17]; rate 0.2500 kg/ha) of the same compound?
A: 1.5

Q: And the TRZAWR herbicidal rating ([18]; rate 0.0320 kg/ha)?
A: 2.8

Q: And the TRZAWR herbicidal rating ([18]; rate 0.0620 kg/ha)?
A: 2.8

Q: And the TRZAWR herbicidal rating ([18]; rate 0.1250 kg/ha)?
A: 2.0

Q: And the GALAP herbicidal rating (GALAP (Galium aparine) [19]; rate 0.0320 kg/ha)?
A: 4.0

Q: And the GALAP herbicidal rating (GALAP (Galium aparine) [19]; rate 0.0620 kg/ha)?
A: 4.0

Q: And the GALAP herbicidal rating (GALAP (Galium aparine) [19]; rate 0.1250 kg/ha)?
A: 5.0

Q: And the IPOHE herbicidal rating ([20]; rate 0.0320 kg/ha)?
A: 6.5

Q: What about the IPOHE herbicidal rating ([20]; rate 0.0620 kg/ha) of the same compound?
A: 8.0

Q: What about the IPOHE herbicidal rating ([20]; rate 0.1250 kg/ha) of the same compound?
A: 9.0

Q: What about the CYPIR herbicidal rating (CYPIR (Cyperus iria); rate 0.0320 kg/ha) of the same compound?
A: 0.0

Q: What about the CYPIR herbicidal rating (CYPIR (Cyperus iria); rate 0.1250 kg/ha) of the same compound?
A: 0.0

Q: And the ORYSAT herbicidal rating (ORYSAT (Rice, Tebonnet) [21]; rate 0.0320 kg/ha)?
A: 2.0

Q: What about the ORYSAT herbicidal rating (ORYSAT (Rice, Tebonnet) [21]; rate 0.0620 kg/ha) of the same compound?
A: 2.5

Q: What about the ORYSAT herbicidal rating (ORYSAT (Rice, Tebonnet) [21]; rate 0.1250 kg/ha) of the same compound?
A: 2.0
